For experiment [1], the system named is BV-2. Kind of experiment: Neuroprotective effect in […] cells assessed as LPS-induced nitric oxide production at 10 to 100 uM incubated for 1 hr prior to LPS challenge measured after 24 hrs by Griess assay. The following applies: Mus musculus. The experiment is classed as functional, cell-based. A general note: Griess reagent forms a coloured azo dye with nitrite.

Experiment [2] relates to BV-2. The experiment in a line: Inhibition of LPS-induced iNOS protein expression in […] cells at 0.1 uM by Western blotting analysis. The experiment is classed as functional, cell-based.
Experiment [3] relates to BV-2. Kind of experiment: Inhibition of LPS-induced COX-2 protein expression in […] cells at 0.1 uM by Western blotting analysis. The experiment is classed as functional, cell-based. In general terms: Immunoblotting shows a protein as a band on a membrane.
The subject of experiment [4] is BV-2. The experiment in a line: Inhibition of LPS-induced ERK phosphorylation in […] cells at 0.1 uM by Western blotting analysis. The experiment is classed as cell-based.
The target in experiment [5] is T1, NF-kappa-B inhibitor alpha (Homo sapiens) (UniProt P25963).
T1 sequence (whole entry): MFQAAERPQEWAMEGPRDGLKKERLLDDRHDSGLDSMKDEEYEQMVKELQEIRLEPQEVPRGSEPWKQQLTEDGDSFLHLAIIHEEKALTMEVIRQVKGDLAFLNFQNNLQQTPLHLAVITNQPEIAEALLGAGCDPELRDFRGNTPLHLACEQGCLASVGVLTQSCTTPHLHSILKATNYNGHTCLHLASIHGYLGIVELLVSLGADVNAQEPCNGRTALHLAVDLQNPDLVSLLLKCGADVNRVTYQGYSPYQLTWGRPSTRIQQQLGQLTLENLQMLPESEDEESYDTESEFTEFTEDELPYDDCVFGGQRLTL
Kind of experiment: Inhibition of LPS-induced IkB-alpha degradation in […] cells at 0.1 uM by Western blotting analysis. The note with it: BV-2. The experiment is classed as cell-based.

Experiment [6] deals with c-Jun N-terminal kinase, JNK (Mus musculus). The experiment in a line: Inhibition of LPS-induced JNK phosphorylation in mouse BV2 cells at 0.1 uM by Western blotting analysis. The following applies: BV-2.
For experiment [7], the system named is MAP kinase p38 (Mus musculus). The experiment in a line: Inhibition of LPS-induced p38 phosphorylation in mouse BV2 cells at 0.1 uM by Western blotting analysis. The note with it: BV-2.

Activity calls are given as the source filed them. No cut-off for these calls is given here.

Regarding `COc1cc([C@H]2O[C@H](O)C3C2CO[C@@H]3c2ccc(O)c(OC)c2)ccc1O` (some centres not stated), the result in experiment [1] was Active. For the same molecule, the inhibition entry in experiment [2], in experiment [3], in experiment [4], in experiment [6] and in experiment [7] was “Active” each time. Besides, the inhibition result in experiment [5] is “inactive”.

As for `COc1cc([C@H]2Oc3c(O)cc(CCCO)cc3[C@@H]2CO)ccc1O`, the outcome in experiment [1] was Active. The inhibition entry in experiment [2] and in experiment [3] was “Active” throughout.

Turning to `COc1cc([C@H]2Oc3c(OC)cc(CCCO)cc3[C@@H]2CO[C@@H]2O[C@H](CO)[C@@H](O)[C@H](O)[C@H]2O)ccc1O`, the result in experiment [1] was Active.

For `COc1cc([C@H]2OC[C@@]3(O[C@@H]4O[C@H](CO)[C@@H](O)[C@H](O)[C@H]4O)C2CO[C@@H]3c2ccc(O)c(OC)c2)ccc1O` (some centres not stated), the result in experiment [1] was Active.

Source of the values: ChEMBL document CHEMBL3351881, “Chemical constituents isolated from Disporum viridescens leaves and their inhibitory effect on nitric oxide production in BV2 microglial cells” (Bioorg Med Chem Lett, 2014).
